Data published in patent publication US10633348B2, “Methods to treat lymphoplasmacytic lymphoma” (Dana-Farber Cancer Institute, Inc., priority 2013, dated 2020).
Where two headings read alike, the source gives them in different places.

Experiments:
Type in all cases: cell-based
eEF2K = system: eEF2K
STK33 = system: STK33
LRRK2 = system: LRRK2
AurA = system: AurA
BRAF = system: BRAF
CAMKK2 = system: CAMKK2
IRAKI = system: IRAKI
MAP3K6 = system: MAP3K6
LKB1 = system: LKB1
TBK1 = system: TBK1
SNRK = system: SNRK
TLK2 = system: TLK2
PRP4 = system: PRP4
PIP4K2B = system: PIP4K2B
MAP3K5 = system: MAP3K5
CDC2 = system: CDC2
MELK = system: MELK
Wnk1, Wnk2 = assay: KiNativ kinase profiling in A375 cells; settings: ATP Loop, SEQ ID NO 193, 1.0 μM
RSK1 domain1 = system: RSK1 domain1
MER, TYRO3 = assay: KiNativ kinase profiling in A375 cells; settings: Activation Loop, SEQ ID NO 102, 1.0 μM
SMG1 = system: SMG1
PIP4K2C = system: PIP4K2C
SRC = system: SRC
NEK1 = system: NEK1
FER = system: FER
IKKe = system: IKKe
[1] = system: 260 kinases in A375 cells; settings: 1.0 μM

SMILES: CCN1CCN(Cc2ccc(NC(=O)c3ccc(C)c(Oc4cc(N)ncn4)c3)cc2C(F)(F)F)CC1 [(A-4), 3-((6-aminopyrimidin-4-yl)oxy)-N-(4-((4-ethylpiperazin-1-yl)methyl)-3-(trifluoromethyl)phenyl)-4-methylbenzamide]
- inhibition of kinase labeling (eEF2K): −30.5%
- inhibition of kinase labeling (STK33): 12.9%
- inhibition of kinase labeling (LRRK2): −15.9%
- inhibition of kinase labeling (AurA): −16.0%
- inhibition of kinase labeling (BRAF): 18.9%
- inhibition of kinase labeling (CAMKK2): 6.2%
- inhibition of kinase labeling (IRAKI): −3.5%
- inhibition of kinase labeling (MAP3K6): −25.0%
- inhibition of kinase labeling (LKB1): −6.0%
- inhibition of kinase labeling (TBK1): 18.2%
- inhibition of kinase labeling (SNRK): 18.0%
- inhibition of kinase labeling (TLK2): 7.1%
- inhibition of kinase labeling (PRP4): −20.1%
- inhibition of kinase labeling (PIP4K2B): −44.7%
- inhibition of kinase labeling (MAP3K5): −30.4%
- inhibition of kinase labeling (CDC2): −2.3%
- inhibition of kinase labeling (MELK): −19.6%
- inhibition of kinase labeling (Wnk1, Wnk2): 24.2%
- inhibition of kinase labeling (RSK1 domain1): −20.9%
- inhibition of kinase labeling (MER, TYRO3): 1.6%
- inhibition of kinase labeling (SMG1): −4.0%
- inhibition of kinase labeling (PIP4K2C): 5.2%
- inhibition of kinase labeling (SRC): 76.1%
- inhibition of kinase labeling (NEK1): −3.0%
- inhibition of kinase labeling (FER): 91.4%
- inhibition of kinase labeling (IKKe): −9.9%

SMILES: CCN1CCN(Cc2ccc(NC(=O)c3ccc(C)c(Oc4ccnc(Nc5cnn(C)c5)n4)c3)cc2C(F)(F)F)CC1 [(A-14), N-(4-((4-ethylpiperazin-1-yl)methyl)-3-(trifluoromethyl)phenyl)-4-methyl-3-((2-((1-methyl-1H-pyrazol-4-yl)amino)pyrimidin-4-yl)oxy)benzamide]
- KiNativ inhibition ([1]; AKT2, AKT3, ATP Loop, SEQ ID NO 204): −19.7%
- KiNativ inhibition ([1]; AMPKa1, AMPKa2, Lys2, SEQ ID NO 205): −17.5%
- KiNativ inhibition ([1]; AurA, AurB, AurC, ATP Loop, SEQ ID NO 211): −2.4%
- KiNativ inhibition ([1]; CDK11, CDK8, Lys2, SEQ ID NO 224): 49.2%
- KiNativ inhibition ([1]; CK1g1, CK1g2, CK1g3, ATP Loop, SEQ ID NO 235): 1.3%
- KiNativ inhibition ([1]; CK1d, CK1e, Lys2, SEQ ID NO 234): −9.3%
- KiNativ inhibition ([1]; JNK1, JNK2, JNK3, Lys2, SEQ ID NO 276): 31.5%
- KiNativ inhibition ([1]; KSR1, KSR2, Activation Loop, SEQ ID NO 280): 1.4%
- KiNativ inhibition ([1]; MAP2K1, MAP2K2, Lys1, SEQ ID NO 289): 9.4%
- KiNativ inhibition ([1]; MAP2K1, MAP2K2, Lys2, SEQ ID NO 290): 2.2%
- KiNativ inhibition ([1]; MAP3K2, MAP3K3, Lys2, SEQ ID NO 299): 8.4%
- KiNativ inhibition ([1]; MARK2, MARK3, Lys2, SEQ ID NO 304): −15.6%
- KiNativ inhibition ([1]; MARK3, MARK4, Lys1, SEQ ID NO 306): −7.5%
- KiNativ inhibition ([1]; MAST1, MAST2, Lys2, SEQ ID NO 308): −24.8%
- KiNativ inhibition ([1]; MER, TYRO3, Activation Loop, SEQ ID NO 313): 21.2%
- KiNativ inhibition ([1]; MST4, YSK1, Lys2, SEQ ID NO 325): −2.4%
- KiNativ inhibition ([1]; MYO3A, MYO3B, Lys2, SEQ ID NO 326): 22.9%
- KiNativ inhibition ([1]; NEK6, NEK7, Lys2, SEQ ID NO 333): −1.8%
- KiNativ inhibition ([1]; PCTAIRE2, PCTAIRE3, Lys1, SEQ ID NO 346): 72.9%
- KiNativ inhibition ([1]; PI4KA, PI4KAP2, ATP, SEQ ID NO 353): 2.1%
- KiNativ inhibition ([1]; PKCa, PKCb, Lys2, SEQ ID NO 364): −86.4%
- KiNativ inhibition ([1]; ROCK1, ROCK2, Lys2, SEQ ID NO 377): −0.2%
- KiNativ inhibition ([1]; RSK1 domain1, RSK2 domain1, RSK3 domain1, Lys2, SEQ ID NO 379): −25.1%
- KiNativ inhibition ([1]; SRPK1, SRPK2, Lys1, SEQ ID NO 391): −38.7%
- KiNativ inhibition ([1]; TAO1, TAO3, Lys2, SEQ ID NO 396): 87.1%
- KiNativ inhibition ([1]; Wnk1, Wnk2, Wnk3, Lys2, SEQ ID NO 406): −1.1%
- KiNativ inhibition ([1]; Wnk1, Wnk2, ATP Loop, SEQ ID NO 405): 11.2%
- KiNativ inhibition ([1]; ZC1/HGK, ZC2/TNIK, ZC3/MINK, Lys2, SEQ ID NO 410): 57.5%
- KiNativ inhibition ([1]; p38d, p38g, Lys2, SEQ ID NO 341): 51.5%
